Legend:
[1] = system: hESC-derived multipotent uncommitted neural precursors; assay: Oligodendroglial differentiation of hESCs with retinoic acid and purmorphamine, propagation in low purmorphamine; assay type: cell-based, human
Procedure: To derive an expandable population of neural precursors enriched for oligodendroglial progenitors (committed), initial neuralization of hESCs was induced as above with or without noggin supplementation. After 2 weeks of culturing in NPM supplemented with mitogens +/−noggin the clusters were treated with RA (1-10 μM; preferably 1 μM) and the hedgehog agonist, Purmurphamine (Merck) (0.5-2 μM; preferably 0.5 μM) to induce ventral-caudal specification of the neuralized cells. Following 7-21 days, preferably 21 days of treatment, the cultures were further propagated for three to 20 more weeks as floating spheres in modified Sato medium supplemented with low concentrations of purmorphamine (0.2-0.5 μM; preferably 0.5 μM), bFGF (20 ng/ml), EGF (20 ng/ml), (NT3; 5 ng/ml) and ascorbic acid (200 nM). For final differentiation, the clusters were plated on poly-D-Lysine (10 μg/ml) and fibronectin (5 μg/ml) coated coverslips in modified Sato medium supplemented with NT3 ([…]), ascorbic acid (200 nM) T3 (40 ng/ml) IGF1 (10 ng/ml;) with or without Rock inhibitor (10 μM; Sigma) for 2-21 days.
To develop expandable cultures enriched for oligodendroglial committed progenitors, hESCs clusters were induced to differentiate as free floating clusters into multipotent uncommitted neural precursors as above with or without noggin. After two weeks of initial neural induction the multipotent uncommitted neural precursors were further cultured for 1-3 weeks, preferably 3 weeks, as floating spheres in modified Sato medium supplemented with mitogens, retinoic acid (RA) and the hedgehog (HH) agonist purmorphamine. During this culture period the early multipotent neural precursors gradually become enriched with Olig2+ oligodendroglial precursors (30-50% of total cells).
For further expansion of the oligodendroglial precursors, the floating spheres were propagated in Sato medium supplemented with mitogens, and low concentrations (0.5 μM) of purmorphamine. After 3-20 weeks of propagation as free floating clusters and plating on fibronectin for 24-48 hours, expression of the OPC markers Olig2 (FIG. 8A), PDGFRα (FIG. 8B) and NG2 (FIG. 8C) were detected in 30%, 20% and 20% of the differentiating cells, respectively. Following further 7-21 days of differentiation in the presence of NT3, AA, T3 and IGF1 +/− Rock inhibitor, markers of mature oligodendrocytes such as O4 (FIG. 8D), GalC (FIG. 8E) and MBP (FIG. 8F) were detected in 20%, 15% and 3% of the plated cells, respectively.

hESCs = assay: In vitro oligodendroglial differentiation of hESCs following retinoic acid treatment; assay type: cell-based, human; conditions: RA treatment
Procedure: Derivation of enriched population of committed oligodendrocyte progenitor cells (OPCs): Initial neural differentiation of hESC was induced as described above for the derivation of enriched population of uncommitted neural precursors. Following two weeks of culturing of hESC clusters in NPM supplemented with noggin (700 ng/ml), and the oligodendroglial mitogens bFGF (20 ng/ml) and EGF (20 ng/ml), the cultures were treated with retinoic acid (RA) (sigma) (10 μM) to induce caudal specification of the neuralized cells. Following 7 days of RA treatment, cultures were propagated as floating spheres in the oligodendroglial specific, modified Sato medium supplemented with the oligodendroglial mitogens bFGF (20 ng/ml), EGF (20 ng/ml) and PDGF-AA (50 ng/ml), and the oligodendroglial survival and maturation factors neurotrophine 3 (NT3) (5 ng/ml) and triiodothyronine (T3) (40 ng/ml).
In vitro oligodendroglial differentiation of hESCs was examined. The experimental protocol included initial induction of human ESCs to differentiate as free floating clusters, under defined culture conditions, in the presence of noggin into early multipotent neural precursors according to the published protocols as described above. After two weeks, they were treated with retinoic acid (RA) and propagated as floating spheres in modified Sato medium and mitogens At sequential week intervals, differentiation was induced by plating on fibronectin and withdrawal of the mitogens, and the expression of oligodendroglial markers were analyzed by immunostaining. After three weeks of propagation as free floating clusters, followed by plating and differentiation for 48 hours, the differentiating cells expressed the oligodendroglial markers NG2 (12%) (FIGS. 7A,[…], 7D, 7F) GD3 (20%) (FIGS. 7B, 7C) and PDGFRα (15%) (FIGS. 7E, 7F). Although at this stage of three weeks propagation, when enrichment for OPCs was obtained, markers of mature oligodendrocytes such as O4 and GalC were not detected, even after 7-10 days of differentiation. Only in cultures that were propagated for more than 5 weeks and induced to differentiate for 7 days, O4 and GalC were expressed by 3% and 1% of differentiating cells, respectively (FIGS. 7G, 7I (O4) and FIGS. 7H, 7I (GalC). Nuclei in FIGS. 7C, 7F, 7G-7I were counter stained with DAPI.

[2] = after RA + purmorphamine, 3-20 weeks propagation with 0.5 μM purmorphamine, plated on fibronectin 24-48 hours
[3] = propagation with 0.5 μM purmorphamine, further 7-21 days differentiation with NT3, AA, T3, IGF1 +/- Rock inhibitor
[4] = propagated more than 5 weeks, differentiated 7 days
[5] = three weeks propagation as floating clusters, differentiation 48 hours

Row | Structure (SMILES) | Olig2+ oligodendroglial precursors (of total cells) ([1]; 1-3 weeks as floating spheres in modified Sato medium with mitogens, RA and purmorphamine) | differentiating cells expressing NG2 [1, 2] | differentiating cells expressing Olig2 [1, 2] | differentiating cells expressing PDGFRα [1, 2] | plated cells expressing GalC [1, 3] | plated cells expressing MBP [1, 3] | plated cells expressing O4 [1, 3] | differentiating cells expressing GalC (hESCs; [4]) | differentiating cells expressing O4 (hESCs; [4]) | differentiating cells expressing GD3 (hESCs; [5]) | differentiating cells expressing NG2 (hESCs; [5]) | differentiating cells expressing PDGFRα (hESCs; [5])
1 | c1ccc2c(Oc3nc(Nc4ccc(N5CCOCC5)cc4)c4ncn(C5CCCCC5)c4n3)cccc2c1 [purmorphamine] | 30-50% | 20% | 30% | 20% | 15% | 3% | 20% | – | – | – | – | –
2 | CC1=C(/C=C/C(C)=C/C=C/C(C)=C/C(=O)O)C(C)(C)CCC1 [retinoic acid] | – | – | – | – | – | – | – | 1% | 3% | 20% | 12% | 15%

Reference: patent US9862925B2, “Human stem cell-derived neural precursors for treatment of autoimmune diseases of the central nervous system” (Hadasit Medical Research Services & Development Limited, priority 2007, dated 2018)
